Patent US10112955B2, “Isoindoline, azaisoindoline, dihydroindenone and dihydroazaindenone inhibitors of Mnk1 and Mnk2” (eFFECTOR THERAPEUTICS, INC., priority 2015, dated 2018)
pIC50: −log10 of the molar value.

Assays:
Phosphorylated eIF4E = test: peIF4E Signaling Cellular Assay (CisBio peIF4E HTRF); type: cell-based; details: cells incubated with compound for 2 hrs at 37° C., 12-point curve
Description: Phosphorylated eIF4E is assayed using the CisBio peIF4E HTRF® assay kit (CisBio, catalogue No. 64EF4PEG). Cells are plated in 96-well tissue-culture treated plate in appropriate growth medium (90 μL). Compounds (10×) are diluted using 3-fold serial dilutions in cell culture medium and added to cells. Plates are incubated for 2 hrs at 37° C. The cell supernatant is carefully removed either by aspirating supernatant or by flicking the plate. Immediately 50 μL of supplemented lysis buffer (1×) is added and incubated for at least 30 minutes at room temperature under shaking. After homogenization by pipeting up and down, 16 μL of cell lysate is transferred from the 96-well cell-culture plate to a 384-well small volume white plate. 4 μL of premixed antibody solutions (vol/vol) is prepared in the detection buffer and added. The plate is covered with a plate sealer and incubated overnight at room temperature. The fluorescence emissions at two different wavelengths are read (665 nm and 620 nm) on a Wallac Victor2. Emission ratios are converted into percent inhibitions and imported into GraphPad Prism software. […] IC50 values are determined using a nonlinear regression model available in GraphPad Prism 5.

[1] = Pharmacokinetics, single intravenous bolus administration; type: in vivo; details: rat, plasma, male Sprague Dawley rats, single intravenous bolus 1 mg/kg, N = 3/group, formulation 10% NMP/15% EtOH/35% PEG400/40% D5W (Cpd. 57: 10% DMA/15% EtOH/35% PEG400/40% D5W); for half-life: read-out: T½ (converted); for Vd: read-out: Vss
Description: Groups of Balb/c mice or Sprague-Dawley rats (n≥3 per dose group) are administered single doses of test compound. Compounds are formulated either as solutions in 10% N-methylpyrrolidone, 90% polyethyleneglycol 400 or as suspensions in 0.5% methylcellulose in water for oral gavage administration at a nominal dose level of 10 mg/kg. […] For intravenously dosed animals, blood samples are collected at 0.083, 0.25, 0.5, 1, 2, 4, 8, and 24 h post dose. For orally dosed animals, blood samples are collected at 0.25, 0.5, 1, 2, 4, 8, and 24 h post dose. Blood samples are collected from mice either serially via submandibular vein (approximately 0.1 mL each) or terminally via cardiac puncture (approximately 0.5 mL each). Blood samples are collected serially from rats via jugular vein catheter (approximately 0.2 mL each). Each blood sample is collected into a tube that is chilled and contains potassium EDTA as the anticoagulant. Plasma is separated and stored at approximately −80 C until analysis. Following protein precipitation with acetonitrile containing an internal standard, plasma samples are analyzed using a liquid chromatography/high-resolution mass spectrometry (LC-HRMS) method to determine plasma concentrations. Plasma concentration versus time data are subjected to noncompartmental pharmacokinetic analysis using Phoenix™ Winnonlin® (Certara LP) to determine pharmacokinetic parameters, including Area Under the Curve (AUC), Clearance (Cl), Volume of Distribution at Steady-State (Vss), and terminal half-life (T1/2). Data from orally and intravenously dose are highlighted in Tables 3 and 4, respectively.

[2] = Pharmacokinetics, single oral gavage administration; type: in vivo; details: male Sprague Dawley rats, single oral gavage 10 mg/kg, N = 3/group (Cpd. 71 N = 2), formulation 10% NMP/90% PEG400 (Cpd. 57: 10% DMA/90% PEG300); for AUC(0-inf) / Cmax / Tmax / half-life: rat, plasma
Description: Groups of Balb/c mice or Sprague-Dawley rats (n≥3 per dose group) are administered single doses of test compound. Compounds are formulated either as solutions in 10% N-methylpyrrolidone, 90% polyethyleneglycol 400 or as suspensions in 0.5% methylcellulose in water for oral gavage administration at a nominal dose level of 10 mg/kg. Compounds are formulated in 10% dimethylisosorbide, 15% ethanol, 35% propylene glycol, and 40% saline (or 40% D5W) for intravenous administration at a nominal dose level of 1 mg/kg. For intravenously dosed animals, blood samples are collected at 0.083, 0.25, 0.5, 1, 2, 4, 8, and 24 h post dose. For orally dosed animals, blood samples are collected at 0.25, 0.5, 1, 2, 4, 8, and 24 h post dose. Blood samples are collected from mice either serially via submandibular vein (approximately 0.1 mL each) or terminally via cardiac puncture (approximately 0.5 mL each). Blood samples are collected serially from rats via jugular vein catheter (approximately 0.2 mL each). Each blood sample is collected into a tube that is chilled and contains potassium EDTA as the anticoagulant. Plasma is separated and stored at approximately −80 C until analysis. Following protein precipitation with acetonitrile containing an internal standard, plasma samples are analyzed using a liquid chromatography/high-resolution mass spectrometry (LC-HRMS) method to determine plasma concentrations. Plasma concentration versus time data are subjected to noncompartmental pharmacokinetic analysis using Phoenix™ Winnonlin® (Certara LP) to determine pharmacokinetic parameters, including Area Under the Curve (AUC), Clearance (Cl), Volume of Distribution at Steady-State (Vss), and terminal half-life (T1/2). Data from orally and intravenously dose are highlighted in Tables 3 and 4, respectively.

MNK2 = MNK2 (Homo sapiens (Human), UniProt Q9HBH9); test: MNK Biochemical Enzymatic Assay (ADP-Glo), MNK2; details: 3 nM recombinant MNK2, 50 μM substrate peptide, 10 μM ATP
Chain of MNK2 (Q9HBH9 whole entry): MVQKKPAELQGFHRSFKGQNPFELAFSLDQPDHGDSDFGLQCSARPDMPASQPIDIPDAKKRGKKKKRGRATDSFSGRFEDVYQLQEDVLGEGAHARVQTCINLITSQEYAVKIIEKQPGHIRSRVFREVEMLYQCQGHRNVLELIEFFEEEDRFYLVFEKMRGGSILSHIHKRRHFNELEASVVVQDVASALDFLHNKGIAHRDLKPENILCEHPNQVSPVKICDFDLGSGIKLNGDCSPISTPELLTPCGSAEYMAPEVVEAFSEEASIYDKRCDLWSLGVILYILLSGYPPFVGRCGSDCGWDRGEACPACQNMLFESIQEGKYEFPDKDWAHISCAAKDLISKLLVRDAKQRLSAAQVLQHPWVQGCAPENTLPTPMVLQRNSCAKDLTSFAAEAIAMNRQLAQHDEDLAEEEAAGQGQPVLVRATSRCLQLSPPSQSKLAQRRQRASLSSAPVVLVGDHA
Description: (§1) Compounds are screened for MNK inhibition using the ADP-Glo kinase assay kit (Promega, catalogue No. V9101). All kinase reactions are performed in Reaction Buffer E (15 mM HEPES pH7.4, 20 mM NaCl, 1 mM EGTA, 10 mM MgCl2, 0.1 mg/ml BGG, and 0.02% Tween-20). […] Final DMSO concentration in each reaction is 1%.
(§2) Kinase reactions are carried out in 96-well half-area white flat-bottom polystyrene plates in a final volume of 25 μl. MNK1/2 enzymes are pre-incubated with compound and peptide substrate for 5 minutes prior to the addition of ATP. After the addition of ATP, kinase reactions are incubated at room temperature for 40 minutes. Reactions are subsequently stopped by the addition of 25 μl of ADP-Glo Reagent and incubating for an additional 40 minutes. The final luminescent signal used for kinase activity readout is produced by the addition of 45 μl of Kinase Detection Reagent (ADP-Glo kit, Promega) and incubating for 40 minutes.

MNK1 = MNK1 (Homo sapiens (Human), UniProt Q9BUB5); test: MNK Biochemical Enzymatic Assay (ADP-Glo), MNK1; details: 10 nM recombinant MNK1, 100 μM substrate peptide, 300 μM ATP; read-out: IC50 Mnk1
Chain of MNK1 (Q9BUB5 whole entry): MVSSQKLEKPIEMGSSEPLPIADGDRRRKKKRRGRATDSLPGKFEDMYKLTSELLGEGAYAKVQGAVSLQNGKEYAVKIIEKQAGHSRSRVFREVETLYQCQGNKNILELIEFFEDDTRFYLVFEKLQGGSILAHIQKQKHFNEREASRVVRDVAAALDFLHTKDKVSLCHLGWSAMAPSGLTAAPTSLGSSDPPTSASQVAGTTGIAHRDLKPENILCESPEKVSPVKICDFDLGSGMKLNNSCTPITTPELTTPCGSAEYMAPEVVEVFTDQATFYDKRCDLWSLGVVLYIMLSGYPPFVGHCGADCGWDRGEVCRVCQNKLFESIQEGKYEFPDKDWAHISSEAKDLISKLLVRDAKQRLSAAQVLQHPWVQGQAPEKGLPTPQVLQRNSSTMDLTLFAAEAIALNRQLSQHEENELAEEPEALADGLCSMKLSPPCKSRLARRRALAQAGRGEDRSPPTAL
Description: as §1, §2

SMILES	pIC50 (Phosphorylated eIF4E)	AUC(0-inf) [1] [ng·h/mL]	clearance [1] [mL/min/kg]	half-life [1] [min]	Vd [1] [L/kg]	F [2] [%]	AUC(0-inf) [2] [ng·h/mL]	Cmax [2] [ng/mL]	Tmax [2] [min]	half-life [2] [min]	pIC50 (MNK2)	pIC50 (MNK1)
O=C1NCCc2cc(Nc3ccncn3)ccc21 [Cpd. No. 10, 6-(pyrimidin-4-ylamino)-3,4-dihydroisoquinolin-1(2H)-one]	4.00 to 6.00										7.00 to 8.00	7.00 to 8.00
CC(C)C1NC(=O)c2ccc(Nc3ccncn3)cc21 (stereo not shown) [Cpd. No. 13, 3-isopropyl-5-(pyrimidin-4-ylamino)isoindolin-1-one]	4.00 to 6.00										7.00 to 8.00	7.00 to 8.00
CC1NC(=O)c2ccc(Nc3cc(NC(=O)C4CC4)ncn3)cc21 (stereo not shown) [Cpd. No. 17, N-(6-((3-methyl-1-oxoisoindolin-5-yl)amino)pyrimidin-4-yl)cyclopropanecarboxamide]	6.00 to 7.30										> 8.00	> 8.00
CC1NC(=O)c2ccc(Nc3ccncn3)cc21 (stereo not shown) [Cpd. No. 8, 3-methyl-5-(pyrimidin-4-ylamino)isoindolin-1-one]	4.00 to 6.00										7.00 to 8.00	7.00 to 8.00
CC1Cc2cc(Nc3ccncn3)ccc2C(=O)N1 (stereo not shown) [Cpd. No. 23, 3-methyl-6-(pyrimidin-4-ylamino)-3,4-dihydroisoquinolin-1(2H)-one]	4.00 to 6.00										7.00 to 8.00	5.00 to 7.00
O=C1NCc2cc(Nc3cc(NC(=O)C4CC4)ncn3)ccc21 [Cpd. No. 12, N-(6-((1-oxoisoindolin-5-yl)amino)pyrimidin-4-yl)cyclopropanecarboxamide]	6.00 to 7.30										> 8.00	> 8.00
CC1CNC(=O)c2ccc(Nc3ccncn3)cc21 (stereo not shown) [Cpd. No. 22, 4-methyl-6-(pyrimidin-4-ylamino)-3,4-dihydroisoquinolin-1(2H)-one]	4.00 to 6.00										7.00 to 8.00	5.00 to 7.00
CC1(C)NC(=O)c2ccc(Nc3ccncn3)cc21 [Cpd. No. 15, 3,3-dimethyl-5-(pyrimidin-4-ylamino)isoindolin-1-one]	4.00 to 6.00										7.00 to 8.00	5.00 to 7.00

Continued, values first:

pIC50 (Phosphorylated eIF4E)	AUC(0-inf) [1] [ng·h/mL]	clearance [1] [mL/min/kg]	half-life [1] [min]	Vd [1] [L/kg]	F [2] [%]	AUC(0-inf) [2] [ng·h/mL]	Cmax [2] [ng/mL]	Tmax [2] [min]	half-life [2] [min]	pIC50 (MNK2)	pIC50 (MNK1)	SMILES
> 7.30	886	19.1	249	3.9	63.9	5660	1140	30	174			Cc1cc(Nc2ncnc(N)c2C)nc2c1C(=O)NC21CCCCC1 [Cpd. No. 71, 2′-((6-amino-5-methylpyrimidin-4-yl)amino)-4′-methylspiro[cyclohexane-1,7′-pyrrolo[3,4-b]pyridin]-5′(6′H)-one]
4.00 to 6.00										5.00 to 7.00	7.00 to 8.00	CC1NC(=O)c2ccc(Nc3ncnc4c3CCN4)cc21 (stereo not shown) [Cpd. No. 39, 5-(6,7-dihydro-5H-pyrrolo[2,3-d]pyrimidin-4-ylamino)-3-methyl-isoindolin-1-one]
> 7.30	491	35.3	566	13.2	27.9	1370	417	25	549	> 8.00		Cc1cc(Nc2ncnc(N)c2Cl)cc2c1C(=O)NC21CCCCC1 [Cpd. No. 58, 6′-((6-amino-5-chloropyrimidin-4-yl)amino)-4′-methylspiro[cyclohexane-1,1′-isoindolin]-3′-one]
6.00 to 7.30										5.00 to 7.00	> 8.00	CC1NC(=O)c2ccc(Nc3ccnc(NC(=O)C4CC4)c3)cc21 (stereo not shown) [Cpd. No. 24, N-(4-((3-methyl-1-oxoisoindolin-5-yl)amino)pyridin-2-yl) cyclopropane carboxamide]
4.00 to 6.00										7.00 to 8.00	7.00 to 8.00	Cc1cc(Nc2ccncn2)cc2c1C(=O)NC2C (stereo not shown) [Cpd. No. 33, 3,7-dimethyl-5-(pyrimidin-4-ylamino)isoindolin-1-one]
6.00 to 7.30										> 8.00	> 8.00	CC1NC(=O)c2c(Cl)cc(Nc3ccncn3)cc21 (stereo not shown) [Cpd. No. 35, 7-chloro-3-methyl-5-(pyrimidin-4-ylamino)isoindolin-1-one]
4.00 to 6.00										> 8.00	> 8.00	CC1NC(=O)c2cnc(Nc3ccnc(NC(=O)C4CC4)c3)cc21 (stereo not shown) [Cpd. No. 42, N-(4-((1-methyl-3-oxo-2,3-dihydro-1H-pyrrolo[3,4-c]pyridin-6-yl)amino)pyridin-2-yl)cyclopropanecarboxamide]
> 7.30										> 8.00	> 8.00	CC1(C)NC(=O)c2c(Cl)cc(Nc3cc(N)ncn3)cc21 [Cpd. No. 43, 5-((6-aminopyrimidin-4-yl)amino)-7-chloro-3,3-dimethylisoindolin-1-one]
4.00 to 6.00										5.00 to 7.00	7.00 to 8.00	CC1NC(=O)c2ccc(Nc3ncnc4c3OCCN4)cc21 (stereo not shown) [Cpd. No. 38, 5-(7,8-dihydro-6H-pyrimido[5,4-b][1,4]oxazin-4-ylamino)-3-methyl-isoindolin-1-one]
> 7.30	1130	14.8	509	4.59	24.2	2740	1380	40	165			COc1c(N)ncnc1Nc1cc(C)c2c(n1)C1(CCCCC1)NC2=O [Cpd. No. 72, 2′-((6-amino-5-methoxypyrimidin-4-yl)amino)-4′-methylspiro[cyclohexane-1,7′-pyrrolo[3,4-b]pyridin]-5′(6′H)-one]
